Experiments:
Assay in all cases: KINOMEscan competition binding
Conditions in all cases: compound 10.0 µM
[1] = target: SRMS (human) (UniProt Q9H3Y6)
[2] = target: CAMK1G (human) (UniProt Q96NX5)
[3] = target: DAPK2 (human) (UniProt Q9UIK4)
[4] = target: NUAK1 (human) (UniProt O60285)
[5] = tested on: KIT (human), P10721 [V559D]
[6] = tested on: EGFR (human), P00533 [752-759 del]
[7] = target: ULK3 (human) (UniProt Q6PHR2)
[8] = target: PRKCD (human) (UniProt Q05655)
[9] = target: CDK8 (human) (UniProt P49336)
[10] = target: SIK1 (human) (UniProt P57059)
Sequence of SIK1 (human) (P57059 whole entry, looked up): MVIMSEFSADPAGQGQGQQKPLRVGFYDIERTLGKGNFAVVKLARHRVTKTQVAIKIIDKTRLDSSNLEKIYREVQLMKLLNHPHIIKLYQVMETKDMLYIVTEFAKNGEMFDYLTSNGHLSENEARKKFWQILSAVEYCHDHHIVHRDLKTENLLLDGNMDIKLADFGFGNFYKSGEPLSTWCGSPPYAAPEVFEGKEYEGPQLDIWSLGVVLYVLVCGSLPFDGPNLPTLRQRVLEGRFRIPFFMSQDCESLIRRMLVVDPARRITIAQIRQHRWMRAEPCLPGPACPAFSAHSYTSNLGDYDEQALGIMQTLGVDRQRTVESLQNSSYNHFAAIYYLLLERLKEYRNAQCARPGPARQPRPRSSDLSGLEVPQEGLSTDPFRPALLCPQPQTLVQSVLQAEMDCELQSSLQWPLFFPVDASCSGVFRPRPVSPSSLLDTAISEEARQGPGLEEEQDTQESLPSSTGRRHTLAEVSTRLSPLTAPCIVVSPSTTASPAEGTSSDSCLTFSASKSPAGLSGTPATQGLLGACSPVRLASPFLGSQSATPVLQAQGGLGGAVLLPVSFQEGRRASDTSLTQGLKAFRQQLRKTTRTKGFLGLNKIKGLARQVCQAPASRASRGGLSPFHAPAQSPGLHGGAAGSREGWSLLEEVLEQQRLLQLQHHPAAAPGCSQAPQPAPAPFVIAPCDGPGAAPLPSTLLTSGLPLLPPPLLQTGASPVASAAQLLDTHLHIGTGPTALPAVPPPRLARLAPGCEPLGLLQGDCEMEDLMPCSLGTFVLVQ

[11] = tested on: FLT3 (human), P36888 [R834Q]
[12] = target: MAP4K3 (human) (UniProt Q8IVH8)
[13] = target: RPS6KA1 KD2 (human) (UniProt Q15418)
Sequence of RPS6KA1 KD2 (human) (Q15418 whole entry, looked up): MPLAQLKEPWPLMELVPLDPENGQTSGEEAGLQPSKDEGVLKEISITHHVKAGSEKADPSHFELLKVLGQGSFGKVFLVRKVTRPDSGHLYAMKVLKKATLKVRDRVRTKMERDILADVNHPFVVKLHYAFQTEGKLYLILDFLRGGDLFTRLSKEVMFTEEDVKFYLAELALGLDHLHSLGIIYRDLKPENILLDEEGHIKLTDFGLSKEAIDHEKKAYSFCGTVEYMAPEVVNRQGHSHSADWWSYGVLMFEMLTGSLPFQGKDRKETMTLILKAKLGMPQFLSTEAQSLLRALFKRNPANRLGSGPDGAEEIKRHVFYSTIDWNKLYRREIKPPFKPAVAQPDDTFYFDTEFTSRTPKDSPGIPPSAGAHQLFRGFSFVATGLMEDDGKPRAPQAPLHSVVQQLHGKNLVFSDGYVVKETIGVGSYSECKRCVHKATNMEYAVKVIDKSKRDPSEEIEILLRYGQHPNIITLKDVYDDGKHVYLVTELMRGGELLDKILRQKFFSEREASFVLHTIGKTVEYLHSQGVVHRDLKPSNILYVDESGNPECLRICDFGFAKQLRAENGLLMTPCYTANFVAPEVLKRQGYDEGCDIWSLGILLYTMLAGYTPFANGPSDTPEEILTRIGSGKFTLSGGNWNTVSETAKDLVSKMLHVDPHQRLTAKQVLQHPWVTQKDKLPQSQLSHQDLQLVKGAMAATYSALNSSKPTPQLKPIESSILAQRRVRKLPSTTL

[14] = target: MERTK (human) (UniProt Q12866)
[15] = target: CDK16 (human) (UniProt Q00536)
Sequence of CDK16 (human) (Q00536 whole entry, looked up): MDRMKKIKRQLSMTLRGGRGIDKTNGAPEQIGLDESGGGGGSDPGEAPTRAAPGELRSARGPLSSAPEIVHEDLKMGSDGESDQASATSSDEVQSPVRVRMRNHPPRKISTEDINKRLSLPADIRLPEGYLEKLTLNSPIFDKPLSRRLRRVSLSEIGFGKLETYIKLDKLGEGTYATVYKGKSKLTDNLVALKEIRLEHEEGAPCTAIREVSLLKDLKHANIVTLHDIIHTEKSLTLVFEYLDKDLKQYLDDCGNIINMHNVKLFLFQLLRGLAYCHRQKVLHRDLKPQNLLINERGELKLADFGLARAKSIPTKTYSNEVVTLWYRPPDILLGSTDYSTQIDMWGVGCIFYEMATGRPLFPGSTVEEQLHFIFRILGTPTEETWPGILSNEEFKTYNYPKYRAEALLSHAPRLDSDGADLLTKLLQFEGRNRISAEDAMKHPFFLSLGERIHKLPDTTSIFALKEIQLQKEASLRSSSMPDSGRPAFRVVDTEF

[16] = target: PIK3CA (human) (UniProt P42336)
[17] = target: MAP3K3 (human) (UniProt Q99759)
[18] = tested on: PIK3CA (human), P42336 [H1047L]
[19] = target: PKMYT1 (human) (UniProt Q99640)
Sequence of PKMYT1 (human) (Q99640 whole entry, looked up): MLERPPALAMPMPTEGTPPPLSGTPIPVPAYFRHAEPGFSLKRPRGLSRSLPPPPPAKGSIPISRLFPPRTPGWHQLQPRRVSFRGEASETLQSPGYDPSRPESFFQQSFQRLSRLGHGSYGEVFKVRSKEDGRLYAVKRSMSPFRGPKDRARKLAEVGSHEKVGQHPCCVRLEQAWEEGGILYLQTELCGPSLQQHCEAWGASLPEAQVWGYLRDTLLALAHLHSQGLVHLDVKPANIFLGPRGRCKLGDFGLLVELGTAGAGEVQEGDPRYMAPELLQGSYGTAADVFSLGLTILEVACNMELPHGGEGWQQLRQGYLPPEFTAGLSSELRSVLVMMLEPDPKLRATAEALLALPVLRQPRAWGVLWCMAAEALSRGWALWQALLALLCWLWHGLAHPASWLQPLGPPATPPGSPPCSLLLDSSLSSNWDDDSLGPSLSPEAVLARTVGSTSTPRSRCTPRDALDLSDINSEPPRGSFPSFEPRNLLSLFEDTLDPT

[20] = target: CASK (human) (UniProt O14936)
[21] = target: TIE1 (human) (UniProt P35590)
Sequence of TIE1 (human) (P35590 whole entry, looked up): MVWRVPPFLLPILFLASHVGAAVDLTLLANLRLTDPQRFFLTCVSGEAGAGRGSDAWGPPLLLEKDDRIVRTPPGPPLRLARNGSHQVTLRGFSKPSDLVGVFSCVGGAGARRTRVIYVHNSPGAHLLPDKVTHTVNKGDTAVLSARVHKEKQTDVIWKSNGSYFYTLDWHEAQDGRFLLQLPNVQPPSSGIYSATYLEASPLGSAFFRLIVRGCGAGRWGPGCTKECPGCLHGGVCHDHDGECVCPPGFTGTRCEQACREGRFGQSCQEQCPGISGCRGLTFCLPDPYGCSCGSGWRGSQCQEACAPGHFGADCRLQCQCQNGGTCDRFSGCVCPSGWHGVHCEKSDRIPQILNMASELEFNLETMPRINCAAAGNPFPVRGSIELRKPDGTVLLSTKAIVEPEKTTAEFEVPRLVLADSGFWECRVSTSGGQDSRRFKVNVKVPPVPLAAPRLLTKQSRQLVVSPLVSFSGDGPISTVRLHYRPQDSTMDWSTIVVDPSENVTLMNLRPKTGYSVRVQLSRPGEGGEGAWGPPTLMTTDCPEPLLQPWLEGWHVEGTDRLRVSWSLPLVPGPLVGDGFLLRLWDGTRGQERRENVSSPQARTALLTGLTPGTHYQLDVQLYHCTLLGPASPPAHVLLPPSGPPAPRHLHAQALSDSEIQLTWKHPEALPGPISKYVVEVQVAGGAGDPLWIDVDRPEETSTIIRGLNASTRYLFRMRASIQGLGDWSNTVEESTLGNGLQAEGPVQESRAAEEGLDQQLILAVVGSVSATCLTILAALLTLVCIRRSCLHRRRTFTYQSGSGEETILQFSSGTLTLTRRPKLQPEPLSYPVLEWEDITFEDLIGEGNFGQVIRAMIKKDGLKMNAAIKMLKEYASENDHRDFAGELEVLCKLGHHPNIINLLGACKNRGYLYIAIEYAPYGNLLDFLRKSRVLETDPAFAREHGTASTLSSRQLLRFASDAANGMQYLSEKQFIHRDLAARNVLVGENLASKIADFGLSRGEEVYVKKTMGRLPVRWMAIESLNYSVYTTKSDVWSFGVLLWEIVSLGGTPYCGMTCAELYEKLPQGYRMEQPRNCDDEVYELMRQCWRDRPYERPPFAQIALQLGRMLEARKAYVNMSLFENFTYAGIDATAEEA

[22] = target: RPS6KA6 KD1 (human) (UniProt Q9UK32)
[23] = target: CLK1 (human) (UniProt P49759)
[24] = tested on: PIK3CA (human), P42336 [C420R]
[25] = target: MARK1 (human) (UniProt Q9P0L2)
[26] = target: TYK2 JH2 pseudokinase (human) (UniProt P29597)
Sequence of TYK2 JH2 pseudokinase (human) (P29597 whole entry, looked up): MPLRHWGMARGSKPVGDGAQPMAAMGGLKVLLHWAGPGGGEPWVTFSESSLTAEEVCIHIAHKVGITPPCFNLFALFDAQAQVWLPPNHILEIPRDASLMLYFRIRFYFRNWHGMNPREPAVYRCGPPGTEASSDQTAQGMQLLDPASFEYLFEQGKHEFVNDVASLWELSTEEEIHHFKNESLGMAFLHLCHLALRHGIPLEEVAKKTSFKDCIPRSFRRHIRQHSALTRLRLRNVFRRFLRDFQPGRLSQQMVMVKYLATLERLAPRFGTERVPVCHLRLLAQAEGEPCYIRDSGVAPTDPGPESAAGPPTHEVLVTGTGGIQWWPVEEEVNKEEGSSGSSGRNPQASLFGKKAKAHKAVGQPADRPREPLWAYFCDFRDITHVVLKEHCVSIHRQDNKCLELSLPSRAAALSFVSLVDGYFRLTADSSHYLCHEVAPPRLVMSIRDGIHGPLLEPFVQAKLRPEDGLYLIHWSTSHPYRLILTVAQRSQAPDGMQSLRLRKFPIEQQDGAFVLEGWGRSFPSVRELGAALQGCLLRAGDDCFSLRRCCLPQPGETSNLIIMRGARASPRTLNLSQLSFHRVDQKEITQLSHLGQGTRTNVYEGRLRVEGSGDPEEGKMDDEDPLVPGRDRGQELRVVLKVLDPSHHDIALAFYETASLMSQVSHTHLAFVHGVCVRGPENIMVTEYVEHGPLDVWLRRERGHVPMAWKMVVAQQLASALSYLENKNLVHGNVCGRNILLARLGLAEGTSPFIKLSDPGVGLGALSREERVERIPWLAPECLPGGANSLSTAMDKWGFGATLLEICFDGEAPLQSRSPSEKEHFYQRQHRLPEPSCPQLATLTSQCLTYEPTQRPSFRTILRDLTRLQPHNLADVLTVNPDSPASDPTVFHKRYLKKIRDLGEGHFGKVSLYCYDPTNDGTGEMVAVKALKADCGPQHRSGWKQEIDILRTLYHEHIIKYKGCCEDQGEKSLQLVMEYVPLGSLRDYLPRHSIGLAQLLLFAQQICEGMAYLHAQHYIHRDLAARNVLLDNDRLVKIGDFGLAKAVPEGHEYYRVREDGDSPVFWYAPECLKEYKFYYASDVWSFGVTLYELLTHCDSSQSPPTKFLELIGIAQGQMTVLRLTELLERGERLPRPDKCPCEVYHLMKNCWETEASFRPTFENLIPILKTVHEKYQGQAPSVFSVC

[27] = target: RPS6KB1 (human) (UniProt P23443)
[28] = target: FYN (human) (UniProt P06241)
[29] = target: KIT (human) (UniProt P10721)
[30] = target: FES (human) (UniProt P07332)
[31] = tested on: PIK3CA (human), P42336 [I800L]
[32] = target: STK16 (human) (UniProt O75716)
[33] = target: GRK4 (human) (UniProt P32298)
[34] = target: ZAP70 (human) (UniProt P43403)
[35] = target: MAPKAPK2 (human) (UniProt P49137)

In the case of `COc1cc(C(=O)N2CCC(N3CCN(C)CC3)CC2)ccc1Nc1ncc2c(n1)N(C)c1ccccc1C(=O)N2C`, the kinase still bound, per cent of control [1] is reported as 77%, the kinase still bound, per cent of control [2] is reported as 74% and the kinase still bound, per cent of control [3] is reported as 67%. For the same compound, the kinase still bound, per cent of control [4] was 47%, the kinase still bound, per cent of control [5] was 100% and the kinase still bound, per cent of control [6] was 99%. The kinase still bound, per cent of control [7] was 100%, the kinase still bound, per cent of control [8] was 75% and the residual activity [9] was 100%. For the same compound, the kinase still bound, per cent of control [10] was 77%, the kinase still bound, per cent of control [11] was 100% and the kinase still bound, per cent of control [12] was 71%. For the same compound, the kinase still bound, per cent of control [13] was 10%, the kinase still bound, per cent of control [14] was 100% and the residual activity [15] was 96%. The kinase still bound, per cent of control [16] was 74%, the kinase still bound, per cent of control [17] was 97% and the kinase still bound, per cent of control [18] was 20%. The kinase still bound, per cent of control [19] was 80%, the kinase still bound, per cent of control [20] was 85% and the kinase still bound, per cent of control [21] was 100%. It also gave a kinase still bound, per cent of control [22] of 92%, a kinase still bound, per cent of control [23] of 28% and a kinase still bound, per cent of control [24] of 89%. For the same compound, the kinase still bound, per cent of control [25] was 87%, the kinase still bound, per cent of control [26] was 100% and the kinase still bound, per cent of control [27] was 100%. The kinase still bound, per cent of control [28] was 100%, the kinase still bound, per cent of control [29] was 100% and the kinase still bound, per cent of control [30] was 84%. For the same compound, the kinase still bound, per cent of control [31] was 38%, the kinase still bound, per cent of control [32] was 62% and the kinase still bound, per cent of control [33] was 86%. For the same compound, the kinase still bound, per cent of control [34] was 79% and the kinase still bound, per cent of control [35] was 100%.
